Measurements: patent US20170189376A1, “BUTYROYLOXYMETHYL DIETHYL PHOSPHATE COMPOUNDS AND USES THEREOF” (MOR RESEARCH APPLICATIONS LTD., priority 2016, published 2017)
Where two headings read alike, the source gives them in different places.

Experiments:
Hut78 cells [1] = format: cell-based, homo sapiens; conditions: trypan blue; for IC50: column group printed 'SAHA'
SPBL = experiment: FACS annexin V/PI apoptosis ex vivo, PBL of SS patients; format: cell-based, human; conditions: PBL from 2 SS patients, SAHA 4 μM or AN-7 200 μM, 48 h
Text: The cells were then stained with annexin V and PI and analysed by FACS.

Acetylated H3 = experiment: Western blot of acetylated H3 in nuclear lysate of MF/SS cell lines; conditions: MyLa and Hut78, SAHA 10 μM or AN-7 300 μM
Method: Cells (5×10^6) were suspended in 300 μL of cytoplasmic buffer (HEPES 10 mM, KCl 10 mM, EDTA 1 mM, EGTA 1 mM, DTT 1 mM). After 20 min of incubation on ice, the mixture was passed 5 times through a 25-G syringe and then centrifuged briefly to obtain the cytoplasmic supernatant.
The nuclear pellet was suspended in 40-60 μL of nuclear buffer (cytoplasmic buffer+10% glycerol), incubated with shaking at 4° C. for 15 min, and centrifuged. The supernatant was collected as a nuclear fraction.
Cell extracts were separated by SDS-polyacrylamide gel electrophoresis (SDS-PAGE), transferred to a nitrocellulose membrane, and subjected to immunoblot with primary and secondary antibodies, as listed in table 1.

Hut78 cells [2] = experiment: MTT-based viability assay, Hut78 cells
Method: (§5) MyLa cells (10^4), Hut78 cells (5×10^3), SPBL and NPBL (10^5) were seeded in triplicate in 96-well plates. The PBL were activated with PHA 40 μg/10^6 cell for 24 h before the experiment. […] The cells were then placed in a humidified incubator for 72 h. […] The MTT reagent was added to a final concentration of 0.5 mg/mL, and the cells were incubated for an additional 4 h. Thereafter, 0.1N HCl in isopropanol was added, and cell viability was determined using an ELISA reader (PowerWaveX, BioTek, Winooski, Vt., USA) at a 570 nm wavelength with background subtraction at 630-690 nM.
(§6) Viability and apoptosis curves were based on the averages of at least 3 independent experiments. The standard error (SE) was calculated for each group as follows: SE=standard deviation/√n, where n is number of values in the group. […] Significant differences in selectivity among groups were analyzed by comparing the IC50 values using two-tailed unpaired t-test using Excel or by comparing the differential effects for all the dose response titrations using ANOVA with repeated measures.

MyLa cells [3] = experiment: MTT-based viability assay, MyLa cells
Method: as §5, §6

MyLa cells [4] = experiment: FACS analysis with annexin V and PI staining (apoptosis), MyLa cells
Method: (§7) The cells (2.5×10^6 cells/mL) were washed in PBS and binding buffer and were resuspended in binding buffer, and of fluorescein isothiocyanate-conjugated annexin V (5 μL) was added to a 100 μL cell suspension for 10-15 min. Incubation was performed at room temperature under light-protected conditions. The cells were then washed in binding buffer and were resuspended in the binding buffer and propidium iodide (PI) (5 μL) was added. The samples were analyzed by flow cytometry (FACS Calibur 4.1.6, Becton Dickinson): fluorescein-labeled annexin V at a 530 nm wavelength, and PI at a 585 nm wavelength. The percentage of cells was calculated by their distribution in a fluorescence dot plot generated with FCS Express 4 software (De Novo Software, Los Angeles, Calif., USA). Early (annexin V-positive) and late (annexin V+PI-positive) apoptotic cells were summed to yield the total number of apoptotic cells.

[5] = test system: p-KAP1, γH2AX in Hut78 cells; experiment: Western blot of p-KAP1 and γH2AX, Hut78 cells; format: cell-based, homo sapiens; conditions: 0.5 mM AN-7 2 h, 0.5 μM Dox 1 h, or AN-7 1 h followed with Dox 1 h
Method: (§1) Cell fraction—3×10^6cells were suspended in 100 μl hypotonic buffer (HEPES 10 mM, KCl 5 mM, MgCl2 1.5 mM, DTT 1 mM, NP-40 1%), incubated for 15 min in ice, centrifuged and the supernatant fraction was subjected to western blot of pKAP1 and actin. The sediment was washed once with hypotonic buffer followed by suspension in 100 μl of hypertonic buffer (HEPES 10 mM, NaCl 500 mM, MgCl2 1.5 mM, DTT 1 mM, NP-40 1%), incubated for 15 min in ice, centrifuged, supernatant was removed and the sediment was boiled, vortexed for 10 min at 95° C. with sample buffer ×3 for 3 times and subjected to western blot of γH2AX.
(§2) Whole cells extract—Cells were suspended in lysis buffer (Tris-HCl 50 mM, NaCl 150 mM, NP-40 0.5%), incubated for lh on ice, centrifuged and the supernatant was collected. Protease and Phosphatase inhibitors were added to all buffers at a 1:100 dilutions. […] Bands were visualized by Odyssey Infrared Imaging System and the bands intense were normalized to actin.
(§3) Next, cells were fractionated and fraction lysate were subjected to western blot of phosphorylated KAP1 (p-KAP1), γH2AX and actin.

HDAC1 = experiment: Western blot of HDAC1 protein expression in MF/SS cell lines; format: cell-based, human; conditions: MyLa and Hut78, SAHA 10 μM or AN-7 300 μM
[6] = test system: p-KAP1, γH2AX in MyLa cells; experiment: Western blot of p-KAP1 and γH2AX, MyLa cells; format: cell-based, human; conditions: 1 mM AN-7 2 h, 1 μM Dox 1 h, or AN-7 1 h followed with Dox 1 h
Method: as §1, §2, §3

[7] = test system: caspase 3, PARP, P21 and Bax in MF/SS cell lines; experiment: Western blot of pro-apoptotic proteins in MF/SS cell lines; format: cell-based, human; conditions: MyLa and Hut78, SAHA 10 μM or AN-7 300 μM
Text: However, there was a stronger signal in response to SAHA.

[8] = test system: Sezary syndrome Peripheral blood lymphocytes SPBL; experiment: MTT-based viability assay, Sezary PBL (SPBL); conditions: for IC50: Sezary PBL
Method: (§8) Peripheral blood was diluted 1:3 in sterile phosphate-buffered saline (PBS). Lymphoprep was added in the same blood volume with a Pasteur pipette, and the sample was centrifuged. PBL were collected from the white median interphase, rinsed twice with PBS, and suspended in RPMI medium with 10 mM HEPES to 2×10^6 cells/mL.
as §5, §6
(§9) NPBL were treated at same molar ratio as SPBL.

[9] = test system: NBS1, Rad51, Mre11, DNA-PK, Ku70 in MyLa cells; experiment: Western blot of DSB repair proteins, MyLa cells; format: cell-based, human; conditions: 24 and 48 h post treatment
Method: as §2
(§4) To address whether AN-7 interfere in DSBs repair by regulating the expression of DSBs repair proteins, Immunoblot was applied for those proteins. MyLa and Hut78 cells were treated as previously described and subjected to western blot of DSBs repair proteins.

NPBL = experiment: MTT-based viability assay, normal PBL (NPBL); conditions: for IC50: Normal PBL
Method: as §8, §5, §6, §9

[10] = test system: NBS1, Rad51, Mre11, DNA-PK, Ku70 in Hut78 cells; experiment: Western blot of DSB repair proteins, Hut78 cells; format: cell-based, homo sapiens; conditions: Hut78, 18 and 24 h post treatment
Method: as §2, §4

U2OS GFP-reporter cells = experiment: HR activity assay, U2OS GFP-reporter cells; format: cell-based; conditions: 1 mM AN-7 for 48 h
Method: U2OS cells with the linearized HRsub reporter (Puget et al. DNA Repair 4 (2005) 149-161) were transfected with: SceI-expression vector pCBASce; pCBA vector without Sce-I; and GFP control vector, each one separately with FuGENE 6 transfection reagent (Promega). 24 h later 2×10̂5 cells/ml were seeded in 35 mm plates and 6 h later were treated with 1 mM AN-7 for 48 hr. Cells were washed with PBS then harvested with Trypsin solution, neutralized with PBS+10% FBS, centrifuged in 1200 rpm for 10 min, suspended with PBS+10% FBS and GFP-positive cells were quantified by flow cytometry analysis. Cells excitation was done with 488nm laser; the reading of FL1 values was done in 530 nm. Percent of cells with repaired DSB induced by Sce-I via HR are presented as percent of GFP positive cells which are calculated as follow: (%GFP of cells expressing Sce-I pCBASce)−(%GFP of cells expressing empty pCBASce)/(%GFP of cells expressing GFP control vector).
The role of AN-7 in suppressing directly the repair of DSBs, was verified. To this end, one of the machinery for repairing DSBs, the HR repair machinery, was tested. […] The U2OS-GFP cells were transfected with I-SceI plasmid for 24 hours, treated then with AN-7 for another 48 h and then analyzed for GFP expression in FACS analysis. […]

Hut78 cells [11] = experiment: FACS analysis with annexin V and PI staining (apoptosis), Hut78 cells
Method: as §7

MyLa cells [12] = experiment: cells; format: cell-based, human; conditions: trypan blue, column group printed 'AN-7', MyLa
[13] = long exposure 24 h, read-out: IC50 Long exposure
[14] = read-out: IC50 single treatment (HDACI), MTT 72 h, Table 4

CCCC(=O)OCOP(=O)(OCC)OCC [AN-7, Butyroyloxymethyl diethyl phosphate]
IC50 short exposure/IC50 long exposure (Hut78 cells [1]): 1.3 | IC50 (Hut78 cells [1]; 4 h then washout and 20 h, read-out: IC50 Short exposure): 88 ± 4.6 µM | IC50 (Hut78 cells [1]; [13]): 67 ± 2.5 µM | apoptosis induction in SPBL ex vivo (SPBL): directed more SPBL cells into apoptotic death than SAHA | expression of acetylated H3 (Acetylated H3): induced | IC50 (Hut78 cells [2]; Hut78 cells, MTT, 72 h): 59 ± 4.3 µM | selectivity vs NPBL by dose-response titration (Hut78 cells [2]; Hut78 vs NPBL, ANOVA with repeated measures): significantly selective | Selectivity index (SI) (Hut78 cells [2]; SI=IC50 NPBL/IC50 Hut78): 3.4 | IC50 (Hut78 cells [2]; read-out: IC50 single treatment (HDACI), Hut78, MTT 72 h, Table 4): 59 ± 4.3 µM | IC50 (MyLa cells [3]; MyLa cells, MTT, 72 h): 120 ± 5.3 µM | selectivity vs NPBL by dose-response titration (MyLa cells [3]; MyLa vs NPBL, ANOVA with repeated measures): significantly selective | Selectivity index (SI) (MyLa cells [3]; SI=IC50 NPBL/IC50 MyLa): 1.7 | IC50 (MyLa cells [3]; read-out: IC50 single treatment (HDACI), MyLa, MTT 72 h, Table 4): 81.7 ± 4.4 µM | apoptosis (MyLa cells [4]; SAHA 10 μM or AN-7 300 μM): about 60% | apoptosis after short exposure compared to long exposure (fold less) (MyLa cells [4]; annexin V + PI): no significant difference | induction and persistence of p-KAP1 and γH2AX [5]: did not affect the expression of p-KAP1 and γH2AX | HDAC1 expression level (HDAC1): downregulated | induction and clearance of p-KAP1 [6]: did not affect the expression of p-KAP1 and γH2AX | induction and clearance of γH2AX [6]: did not affect the expression of p-KAP1 and γH2AX | expression of pro-apoptotic proteins (western blot) [7]: cleavage of caspase 3 and poly ADP-ribose polymerase (PARP) and the production of P21 and Bax | Selectivity index (SI) ([8]; SI=IC50 NPBL/IC50 Sezary PBL): 3.56 | selectivity of induced death vs NPBL ([8]; SPBL vs NPBL, by IC50 values): selective death | IC50 ([8]; MTT, 72 h): 128 µM | lethality of high doses to SPBL ([8]; high doses, MTT 72 h): more lethal to SPBL than high doses of SAHA | IC50 [8, 14]: 128 ± 5.2 µM | expression of NBS1, Mre11, Rad51 and DNA-PK [9]: did not affect the expression of DSB repair proteins | IC50 (NPBL; MTT, 72 h): 200 ± 2.8 µM | NPBL survival at high doses (NPBL; high doses lethal to Hut78 and MyLa cells): 50% | IC50 (NPBL; [14]): 191 ± 26.1 µM | expression of NBS1 and DNA-PK [10]: did not affect the expression of DSB repair proteins | proportion of cells expressing GFP (frequency of HR repair of I-SceI-induced DSBs) (U2OS GFP-reporter cells): significantly reduce | apoptosis after short exposure compared to long exposure (fold less) (Hut78 cells [11]; Hut78, annexin V + PI): no significant difference | apoptosis (Hut78 cells [11]; Hut78, SAHA 10 μM or AN-7 300 μM): about 60% | IC50 (MyLa cells [12]; 4 h then washout and 44 h, read-out: IC50 Short exposure): 141 ± 9.8 µM | IC50 (MyLa cells [12]; [13]): 159 ± 34.8 µM
